Reference: patent EP4501920A1, “NOVEL PYRAZOLE DERIVATIVES” (Aptabio Therapeutics Inc., priority 2022, dated 2023)

Key:
[1] = system: LX-2 (human hepatic stellate cells); assay: ROS production induced by PMA in LX-2 cells; assay type: cell-based; conditions: FIG. 1
Excerpt: (§1) In order to confirm the effect of the compounds of Synthetic examples on ROS production from fibroblasts and specific substrate cells, ROS production was induced by stimulation of PMA (phorbol 12-myristate 13-acetate), TGF-β1, palmitate or high concentration-glucose, or the like, in HL-60 cells differentiated into neutrophil cells by DMSO treatment, NHLF (normal human lung fibroblast, Lonza), LX-2 (human hepatic stellate cells, Sigma), ARPE19 (human retinal pigment epithelial cell, ATCC), and KEL-FIB (Keloid fibroblast, ATCC) cells, and under this condition, the inhibitory effect of ROS production of the compounds of Synthetic examples was observed.
(§2) The NHLF (normal human lung fibroblast, Lonza), LX-2 (human hepatic stellate cells, Sigma), ARPE19 (human retinal pigment epithelial cell, ATCC), KEL-FIB (keloid fibroblast, ATCC) cells were suspended in a culture medium containing 10% FBS and aliquoted on a 96 well plate and then cultured under the condition of 5% CO2, 37°C for 24 hours. After pre-treating the compounds of Synthetic examples at a concentration of 10, 20, 30, 40, 60 and 80 µM for 30 minutes to 1 hour, the ROS stimulus was treated to each well containing the cells and drug. After additional culturing for 48 hours, the ROS production level was confirmed using L-012 or DCF-DA.

[2] = system: NHLF (normal human lung fibroblast); assay: ROS production induced by PMA in NHLF cells; assay type: cell-based; conditions: FIG. 1
Excerpt: as §1, §2

αSMA = assay: Expression of αSMA induced by TGF-β1 (immunocytochemistry); assay type: cell-based, human; conditions: TGF-β1 (10 ng/ml), 10 µM, FIG. 4
Excerpt: In order to confirm whether the compounds of Synthetic examples of the present invention affect differentiation of fibroblasts into myofibroblasts, the inhibitory effect of the compounds of Synthetic examples on increase in expression of αSMA (biomarker for confirming differentiation into myofibroblasts) induced by TGF-β1 on HFF-1 (human foreskin fibroblast, ATCC), NHLF (normal human lung fibroblast, Lonza), LX-2 (human hepatic stellate cells, Sigma), ARPE19 (human retinal pigment epithelial cell, ATCC), and KEL-FIB (Keloid fibroblast, ATCC) cells was to be observed.
Each cell was suspended in a DMEM medium containing 10% FBS and aliquoted at a concentration of 1×10^4 to 1.5 × 10 ^5 cells/well in a 4-well chamber slide (Nunc) and the compounds of Synthetic examples and TGF-β1 (both TGF β1 and TGF-β have the same meaning) were treated to prepare cells to be used for confirming αSMA expression. The confirmation of αSMA expression in the prepared cells was performed by immunocytochemistry as follows. For the cells, fixation with 4% paraformaldehyde for 10 minutes and permeabilization using 0.1% Triton x-100 were performed, and then processes of treating the primary antibody (anti-αSMA Ab, 1:200, at 4°C for 16 hours) and secondary antibody (Alexa-594 conjugated Ab, 1:800, at a room temperature for 1 hour) against αSMA were progressed in order, and then the expression level of αSMA was observed using a fluorescence microscope.
FIG. 3 observes the effect of treating various compounds of Synthetic examples by 10, 20 and 40 µM, after inducing αSMA expression by treatment of TGF-β1(10 ng/ml) into HFF cells.

[3] = system: human foreskin fibroblasts (HFF-1, ATCC); assay: Collagen gel contraction induced by TGF-β1; assay type: cell-based; conditions: HFF-1 cells and bovine type I collagen; TGF-β1 (10 ng/ml); 72 hours; FIG. 7
Excerpt: In order to confirm the effect of the compounds of Synthetic examples on differentiation of fibroblasts into myofibroblasts, the inhibitory effect of the compounds of Synthetic examples on the phenomenon of contraction of gel induced by interaction of human foreskin fibroblasts (HFF-1, ATCC) and collagen was observed.
The mixed solution of the HFF-1 cells and collagen (bovine type I collagen) prepared at a concentration of 3×10^6 cells/ml was aliquoted in a 24 well plate, respectively, and then cultured under the condition of 5% CO2, 37 °C for 1 hour to induce gel polymerization. Then, after suspending the gel attached on the plate from the plate using a spoon, a medium comprising TGF-β1 and Synthetic example compounds was added to each well. After culturing for 72 hours, the Synthetic example compounds were treated by 10, 20, 30, 40, 60 and 80 µM to measure the size of the gel, and thereby, the degree of contraction of the gel by drug treatment was confirmed.

IL-1β = assay: Expression of IL-1β induced by LPS in human-derived fibroblasts (RT-PCR); assay type: cell-based; conditions: LPS (1 µg/ml) 6 hours; 10 µM; FIG. 8 (LX2, NHLF, ARPE19 and KEL-Fib cells)
Description: After inoculating 2×10^5 cells in a 6 well plate and then culturing for 24 hours, they were further cultured in a serum-free culture solution for 16 hours and then the Synthetic example 1 Compound was pre-treated for 20 minutes according to each condition and inflammation reaction was induced with LPS (1 µg/ml) for 6 hours. The expression of IL-1β was confirmed using RT-PCR. Total RNA was separated from the cells using RNeasy mini kit (Qiagen), and for the separated RNA 2ug, cDNA was synthesized using PrimeScript™ II 1st strand cDNA synthesis kit (TaKaRa) and then PCR was performed with AccuPower® PCR PreMix (Bioneer) to amplify genes. The nucleotide sequences for target primers are as follows. IL-1β (forward: 5'-[…]-3'(SEQ ID NO: 1), reverse: 5'-[…]-3'(SEQ ID NO: 2)); GAPDH (forward: 5'-[…]-3'(SEQ ID NO: 3), reverse: 5'-[…]-3'(SEQ ID NO: 4)); β-actin (forward: 5'-[…]-3'(SEQ ID NO: 5), reverse: 5'-[…]-3'(SEQ ID NO: 6)). The PCR product was confirmed by electrophoresis in 1.5% agarose gel.

IL-6 = assay: Expression of IL-6 in pancreatic cancer associated fibroblasts (ELISA); assay type: cell-based, human; conditions: P.CAF cells; compounds 10, 20, 30, 40, 60 and 80 µM for 48 hours; FIG. 5
Description: (§3) In order to confirm the effect of the compounds of Synthetic examples of the present invention on inflammation reaction in cancer associated fibroblasts, whether the expression of IL6 and IL8 was inhibited by the compounds of Synthetic examples in pancreatic cancer associated fibroblasts (PCAF) was observed.
(§4) After inoculating 1.5×10^5 cells in a 6 well plate and then culturing in P.CAF complete media for 48 hours, the compounds of Synthetic examples were treated by 10, 20, 30, 40, 60 and 80 µM for 48 hours according to each condition, and then the expression of IL-6 and IL-8 was confirmed by performing ELISA with Quantkine ELISA kit (R&D systems) as follows.
(§5) 100 µl of the culture solution in which the compounds of Synthetic examples were treated for 48 hours was added to the microplate strip for analysis including a 100 µl assay diluent and left at a room temperature for 2 hours and then the contents were removed, and then it was washed with 400 µl wash buffer 4 times. 200 µl of a human IL-6 or IL-8 conjugate was added and left at a room temperature for 2 hours and then the contents were removed, and then it was washed with 400 µl wash buffer 4 times. 200 µl of substrate solution was added and left at a room temperature for 20 minutes and then 50 µl of stop solution was added, and the absorbance at a wavelength of 450nm was measured within 30 minutes to confirm the expression level of IL-6 and IL-8.

IL-8 = assay: Expression of IL-8 in pancreatic cancer associated fibroblasts (ELISA); assay type: cell-based, human; conditions: P.CAF cells; compounds 10, 20, 30, 40, 60 and 80 µM for 48 hours; FIG. 6
Description: as §3, §4, §5

## CN(Cc1ccccc1)C1CCc2nn(-c3ccccn3)c(O)c2C1 (stereo not shown) [Compound 1, 5-(Benzylmethylamino)-2-(pyridin-2-yl)-4,5,6,7-tetrahydro-2H-indazol-3-ol]
[1]
  ROS production induced by PMA: inhibited
[2]
  ROS production induced by PMA: inhibited
αSMA; ARPE19 cells
  increase in expression of αSMA induced by TGF-β1: significantly inhibited
αSMA; KEL-FIB cells
  increase in expression of αSMA induced by TGF-β1: significantly inhibited
αSMA; LX-2 cells
  increase in expression of αSMA induced by TGF-β1: significantly inhibited
αSMA; NHLF cells
  increase in expression of αSMA induced by TGF-β1: significantly inhibited
[3]
  contraction of the gel induced by TGF-β1: effectively inhibited
IL-1β
  IL-1β induced by LPS: effectively inhibited in a concentration-dependent manner
IL-6
  IL-6 expressed in P.CAF: effectively inhibited
IL-8
  IL-8 expressed in P.CAF: effectively inhibited
